In ChEMBL document CHEMBL5126564, “Design, synthesis and biological evaluation of chromone derivatives as novel protein kinase CK2 inhibitors” (Bioorg Med Chem Lett, 2022):
Calls of active or inactive are those of the source. No cut-off for these calls is given here.

Tests used:
HL-60 [1] = assay: Induction of apoptosis in human HL-60 cells assessed as early apoptotic cells at 1 uM measured after 48 hrs by flow cytometry relative to control; format: functional
Casein kinase 2 [2] = molecular target: T1, Casein kinase 2 (Homo sapiens, UniProt P67870+P68400+P19784+Q8NEV1); assay: Inhibition of CK2 (unknown origin); format: protein assay
HL-60 [3] = assay: Antiproliferative activity against human HL-60 cells assessed as cell viability after 48 hrs by CCK-8 assay; format: functional, cell-based; details: HL-60, 48 h
A549 = assay: Antiproliferative activity against human A549 cells assessed as cell viability after 48 hrs by CCK-8 assay; format: functional, cell-based; details: A549, 48 h
HepG2 = assay: Antiproliferative activity against human HepG2 cells assessed as cell viability after 48 hrs by CCK-8 assay; format: functional, cell-based; details: HepG2, 48 h
SK-OV-3 = assay: Antiproliferative activity against human SK-OV-3 cells assessed as cell viability after 48 hrs by CCK-8 assay; format: functional, cell-based; details: SK-OV-3, 48 h
[4] = Cytotoxicity against human MSC assessed as cell viability after 48 hrs by CCK-8 assay; format: toxicity, cell-based; details: mesenchymal stem cells (MSC)
Casein kinase 2 [5] = molecular target: T1, Casein kinase 2; assay: Binding affinity to CK2 (unknown origin) by cellular thermal shift assay; format: protein assay
HL-60 [6] = assay: Induction of apoptosis in human HL-60 cells measured after 48 hrs by flow cytometry; format: functional, cell-based; details: DDE = dose-dependent effect
HL-60 [7] = assay: Induction of cell cycle arrest in human HL-60 cells assessed as increase number of cells at G0/G1 phase at 0.1 to 1 uM measured after 12 to 48 hrs by flow cytometry; format: functional, cell-based; details: dose 0.1-1 µM, time 12-48 hrs, DDE = dose-dependent effect
Casein kinase 2 [8] = molecular target: T1, Casein kinase 2; assay: Inhibition of CK2 in human HL-60 cells assessed as decrease in p-alpha-catenin level at 0.1 to 1 uM by Western blot analysis; format: cell-based; details: dose 0.1-1 µM
Casein kinase 2 [9] = molecular target: T1, Casein kinase 2; assay: Inhibition of CK2 in human HL-60 cells assessed as decrease in p-Akt (S129) level at 0.1 to 1 uM by Western blot analysis; format: cell-based; details: dose 0.1-1 µM
Casein kinase 2 [10] = molecular target: T1, Casein kinase 2; assay: Inhibition of CK2 in human HL-60 cells assessed as decrease in p-p21 level at 0.1 to 1 uM by Western blot analysis; format: cell-based; details: dose 0.1-1 µM
Casein kinase 2 [11] = molecular target: T1, Casein kinase 2; assay: Inhibition of CK2 in human HL-60 cells assessed as decrease in survivin level at 0.1 to 1 uM by Western blot analysis; format: cell-based; details: dose 0.1-1 µM
Casein kinase 2 [12] = molecular target: T1, Casein kinase 2; assay: Inhibition of CK2 in human HL-60 cells assessed as decrease in p-STAT3 level at 0.1 to 1 uM by Western blot analysis; format: cell-based; details: dose 0.1-1 µM
Casein kinase 2 [13] = molecular target: T1, Casein kinase 2; assay: Inhibition of CK2 in human HL-60 cells assessed as increase in cleaved PARP level at 0.1 to 1 uM by Western blot analysis; format: cell-based; details: dose 0.1-1 µM

IC50 (Casein kinase 2 [2]) [nM]	Compound	further results
–	CNC(=O)c1cc(Oc2ccc(NC(=O)Nc3ccc(Cl)c(C(F)(F)F)c3)cc2)ccn1 [SORAFENIB]	Activity (HL-60 [1]): 73.2%
160	O=C(Nc1nc2ccc(OC(F)(F)F)cc2s1)c1cc(=O)c2ccccc2o1	–
150	O=C(Nc1nc(-c2ccc(F)cc2)cs1)c1cc(=O)c2ccccc2o1	IC50 (HL-60 [3]): 420 nM; IC50 (A549): 520 nM; IC50 (HepG2): 950 nM; IC50 (SK-OV-3): 440 nM; IC50 at 48 h [4]: 7560 nM
6880	O=C(Nc1nnco1)c1cc(=O)c2ccccc2o1	–
290	COc1ccc2nc(NC(=O)c3cc(=O)c4ccccc4o3)sc2c1	–
180	O=C(Nc1nc(-c2ccc(OC(F)(F)F)cc2)cs1)c1cc(=O)c2ccccc2o1	IC50 (HL-60 [3]): 590 nM; IC50 (A549): 670 nM; IC50 (HepG2): 1040 nM; IC50 (SK-OV-3): 490 nM; IC50 at 48 h [4]: 17700 nM
6420	Cc1csc(NC(=O)c2cc(=O)c3ccccc3o2)n1	–
4350	CC(C)Cc1csc(NC(=O)c2cc(=O)c3ccccc3o2)n1	–
5980	O=C(O)c1cc(=O)c2ccccc2o1 [CHROMOCARB]	–
590	COc1ccc(-c2csc(NC(=O)c3cc(=O)c4ccccc4o3)n2)cc1	–
740	O=C(Nc1nc(-c2ccc(O)cc2)cs1)c1cc(=O)c2ccccc2o1	–
310	O=C(Nc1nc2ccccc2s1)c1cc(=O)c2ccccc2o1	–
240	O=C(Nc1nc2ccc(F)cc2s1)c1cc(=O)c2ccccc2o1	–
5340	CC(C)c1csc(NC(=O)c2cc(=O)c3ccccc3o2)n1	–
4880	O=C(Nc1ncco1)c1cc(=O)c2ccccc2o1	–
4980	O=Cc1cnc(NC(=O)c2cc(=O)c3ccccc3o2)s1	–
6110	Cc1nc(NC(=O)c2cc(=O)c3ccccc3o2)sc1C	–

IC50 (Casein kinase 2 [2]) [nM]	Compound	further results
5200	Cc1nnc(NC(=O)c2cc(=O)c3ccccc3o2)o1	–
610	O=C(Nc1nc(-c2ccccc2)cs1)c1cc(=O)c2ccccc2o1	–
7110	Cc1cnc(NC(=O)c2cc(=O)c3ccccc3o2)s1	–
290	O=C(Nc1nc2ccc(Br)cc2s1)c1cc(=O)c2ccccc2o1	–
200	O=C(Nc1nc2ccc(C(F)(F)F)cc2s1)c1cc(=O)c2ccccc2o1	–
80	COc1ccc2sc(NC(=O)c3cc(=O)c4ccccc4o3)nc2c1	Activity (Casein kinase 2 [5]): Active; IC50 (HL-60 [3]): 250 nM; IC50 (A549): 380 nM; IC50 (HepG2): 660 nM; IC50 (SK-OV-3): 390 nM; IC50 at 48 h [4]: 6250 nM; Activity (HL-60 [6]): Dde; Activity (HL-60 [1]): 80.7%; Activity (HL-60 [7]): Dde; inhibition (Casein kinase 2 [8]): Active; inhibition (Casein kinase 2 [9]): Active; inhibition (Casein kinase 2 [10]): Active; inhibition (Casein kinase 2 [11]): Active; inhibition (Casein kinase 2 [12]): Active; inhibition (Casein kinase 2 [13]): Active
5090	N#Cc1cccc(-c2csc(NC(=O)c3cc(=O)c4ccccc4o3)n2)c1	–
370	Cc1ccc2nc(NC(=O)c3cc(=O)c4ccccc4o3)sc2c1	–
5440	O=C(Nc1ncc(Br)s1)c1cc(=O)c2ccccc2o1	–
340	O=C(Nc1nc(-c2ccc(C(F)(F)F)cc2)cs1)c1cc(=O)c2ccccc2o1	–
5210	O=C(Nc1nccs1)c1cc(=O)c2ccccc2o1	–
4120	Cc1cccc(-c2csc(NC(=O)c3cc(=O)c4ccccc4o3)n2)c1	–
110	O=C(Nc1nc2cc(F)ccc2s1)c1cc(=O)c2ccccc2o1	IC50 (HL-60 [3]): 310 nM; IC50 (A549): 440 nM; IC50 (HepG2): 850 nM; IC50 (SK-OV-3): 420 nM; IC50 at 48 h [4]: 4340 nM
360	Cc1cc2nc(NC(=O)c3cc(=O)c4ccccc4o3)sc2cc1C	–
230	Cc1ccc(-c2csc(NC(=O)c3cc(=O)c4ccccc4o3)n2)cc1	–
250	O=C(Nc1nc2cc(Br)ccc2s1)c1cc(=O)c2ccccc2o1	–
5550	O=C(Nc1nc(-c2cccc(C(F)(F)F)c2)cs1)c1cc(=O)c2ccccc2o1	–
